Measured values published in paper PMC3258025 (Molecular Cancer Therapeutics, 2010).

Tests used:
HEK-hOCT1 cells = test: MTT cytotoxicity assay in OCT1-transfected HEK293 cells; type: cell-based, human; conditions: disopyramide 150 μmol/L
OCT1 [1] = target: T1, OCT1 (Homo sapiens, UniProt O15245); test: Platinum-DNA adduct formation in HEK-hOCT1 cells; type: cell-based; conditions: disopyramide 150 μmol/L, P < 0.001
T1 sequence (O15245 1-554): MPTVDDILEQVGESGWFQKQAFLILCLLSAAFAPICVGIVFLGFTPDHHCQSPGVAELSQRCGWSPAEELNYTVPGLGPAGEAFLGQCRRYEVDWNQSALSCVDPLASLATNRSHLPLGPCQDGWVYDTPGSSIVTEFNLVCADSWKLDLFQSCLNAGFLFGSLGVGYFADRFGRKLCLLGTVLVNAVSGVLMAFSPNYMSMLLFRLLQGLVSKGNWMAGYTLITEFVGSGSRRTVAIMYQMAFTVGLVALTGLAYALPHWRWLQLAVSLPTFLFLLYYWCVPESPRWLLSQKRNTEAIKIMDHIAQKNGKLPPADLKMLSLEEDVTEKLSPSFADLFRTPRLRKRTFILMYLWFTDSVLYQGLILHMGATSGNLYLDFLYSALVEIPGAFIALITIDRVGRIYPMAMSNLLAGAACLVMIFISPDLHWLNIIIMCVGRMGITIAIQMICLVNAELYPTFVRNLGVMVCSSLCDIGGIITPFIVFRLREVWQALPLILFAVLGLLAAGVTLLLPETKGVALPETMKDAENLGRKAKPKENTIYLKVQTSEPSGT

HEK293 cells = test: MTT cytotoxicity of the OCT inhibitors themselves; type: cell-based, human; conditions: same experimental conditions as picoplatin MTT assay; data not shown
OCT3 = target: T2, OCT3 (Homo sapiens, UniProt O75751); conditions: corticosterone 10 μmol/L, P < 0.001
T2 sequence (O75751 1-556): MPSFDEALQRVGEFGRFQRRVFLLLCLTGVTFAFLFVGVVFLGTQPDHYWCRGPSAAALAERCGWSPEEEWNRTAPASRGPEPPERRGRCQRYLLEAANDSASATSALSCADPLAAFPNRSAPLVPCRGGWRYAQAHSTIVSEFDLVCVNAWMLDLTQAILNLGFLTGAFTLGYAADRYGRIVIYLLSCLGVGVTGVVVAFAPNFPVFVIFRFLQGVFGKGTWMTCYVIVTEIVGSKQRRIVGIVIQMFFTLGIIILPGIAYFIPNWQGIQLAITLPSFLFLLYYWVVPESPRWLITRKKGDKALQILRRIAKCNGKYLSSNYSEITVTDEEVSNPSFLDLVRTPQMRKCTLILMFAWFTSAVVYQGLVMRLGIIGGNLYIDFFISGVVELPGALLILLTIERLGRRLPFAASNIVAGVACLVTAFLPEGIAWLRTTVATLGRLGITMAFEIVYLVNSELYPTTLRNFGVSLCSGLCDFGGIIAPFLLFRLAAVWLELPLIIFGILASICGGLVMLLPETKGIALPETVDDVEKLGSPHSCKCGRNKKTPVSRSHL

[2] = system: lung cancer cell lines (A549, H460, H838, and H1703); test: MTT cytotoxicity, summary over the four lung cancer cell lines; type: cell-based, human; conditions: cimetidine 3 mmol/L, 4-hour exposure
OCT1 [3] = target: T1, OCT1; conditions: 10 μmol/L, 30 minutes; picoplatin in PB-Cl, monoaqua and diaqua complexes in PB-SO4

SMILES: CC(C)N(CCC(C(N)=O)(c1ccccc1)c1ccccn1)C(C)C (centres unmarked) [disopyramide]
- Increase of picoplatin IC50 by coincubation of OCT1 inhibitor (HEK-hOCT1 cells): 5.9 fold
- Effect of OCT1 inhibitor on platinum-DNA adduct formation in HEK-hOCT1 cells (OCT1 [1]): inhibitable
- Concentration up to which the inhibitor itself did not exhibit any cytotoxicity (HEK293 cells): > 400 µM

SMILES: C[C@]12C[C@H](O)[C@H]3[C@@H](CCC4=CC(=O)CC[C@@]43C)[C@@H]1CC[C@@H]2C(=O)CO [corticosterone]
- Effect of OCT3 inhibitor on picoplatin-DNA adduct level in HEK-hOCT3 cells (OCT3): completely inhibited

SMILES: N.N.[Cl][Pt][Cl] [Cisplatin]
- Change in IC50 values in the presence of cimetidine [2]: no significant change in the IC50 values

SMILES: Cc1cccc[n+]1[Pt-2]([NH3+])([OH2+])[Cl] (centres unmarked) [monoaqua complex of picoplatin, [Pt(NH3)(2-Pic)(H2O)(Cl)]+]
- Preference of platinum uptake in OCT1-expressing cells over the corresponding EV cells (OCT1 [3]): equal additional preference in OCT1-expressing cells

SMILES: CN/C(=N/CCSCc1nc[nH]c1C)NC#N [cimetidine]
- Concentration up to which the inhibitor itself did not exhibit any cytotoxicity (HEK293 cells): > 5000 µM

SMILES: N.N.O=C([O-])C1(C(=O)[O-])CCC1.[Pt+2] [Carboplatin]
- Change in IC50 values in the presence of cimetidine [2]: no significant change in the IC50 values
